Source: US9931335B2, “Desethylhydroxychloroquine for the treatment of diseases associated with inflammation” (The Board of Trustees of the Leland Stanford Junior …, priority 2013, dated 2018)
Entries after “also recorded” stand apart in the source; their conditions may differ.

Key:
[1] = test system: established EAE in SJL mice; test: EAE mouse model for MS, treatment of established disease; type: in vivo; details: for EAE clinical score (severity of established EAE): 100 mg/kg/day oral gavage from day 14, 50 mg/kg/day 8 days later; for EAE clinical score (severity of established EAE) / Inflammatory Foci Score in the parenchyma / Inflammatory Foci Score, total score / Inflammatory Foci Score in the meninges: vs vehicle; for Inflammatory Foci Score in the parenchyma / Inflammatory Foci Score, total score / Inflammatory Foci Score in the meninges: brain histology at termination; for Inflammatory Foci Score in the meninges: P<0.05 two-tailed T test
Source text: Experimental autoimmune encephalomyelitis (EAE), a mouse model for MS, was induced in SJL mice (n=10 per group) by immunization with proteolipid protein peptide 139-151 (PLP 139-151) in CFA. […] At the termination of the experiment, mice were sacrificed, and the brains harvested, fixed, sections histologically scored by a blinded examiner for the number of inflammatory foci in the meninges and parenchyma using an established “Inflammatory Foci Score” (Chang et al, Recovery from EAE is associated with decreased survival of encephalitogenic T cells in the CNS of B7-1/B7-2-deficient mice. European J. Immunology, 2003, 33(7):2022-32).

[2] = test system: established high-fat diet-induced NASH in C57BL/6 mice; test: High fat diet-induced NASH in mice, treatment of established disease; type: in vivo, mouse; details: 6 weeks; for steatosis percentage of whole area (liver histology): 10 mg/kg/day started after 2 weeks of high-fat diet; for steatosis percentage of whole area (liver histology) / serum ALT / serum AST: vs vehicle
Procedure: To evaluate the effect of DHCQ and HCQ on established NASH, C57BL/6 mice (8 per group) were fed a high-fat “western-style” diet (60% caloric content from fat; Taconic). Following initiation of the high-fat diet, after 2 weeks blood was drawn and analyzed for abnormal elevations in serum markers for NASH including AST and ALT. The AST and ALT became abnormally elevated following the initial 2 weeks of high-fat diet, and at that time treatment was initiated with HCQ (10 mg/kg/day), DHCQ (10 mg/kg/day), or vehicle control. After 6 weeks of treatment, mice were fasted and blood was collected for serum analysis and mice sacrificed for histologic analysis of liver pathology. FIG. 8A presents micrographs of representative liver tissue sections at both 10× and 20× magnification. […] AST and ALT levels in the collected serum were measured and 2-tailed T Tests used to compare levels between groups.

[3] = test system: diet-induced obesity in C57BL/6 mice; test: Mouse diet-induced obesity: type II diabetes, hyperlipidemia and metabolic syndrome; type: in vivo; details: 10 mg/kg/day, 6 weeks; for total cholesterol / triglycerides / blood glucose: vs vehicle; for blood glucose: two-tailed T test
Procedure: To evaluate treatment with DHCQ and HCQ on a mouse model of diet-induced type II diabetes, hyperlipidemia and metabolic syndrome, C57BL/6 mice (8 per group) were fed a high-fat “western-style” diet (60% caloric content from fat; Taconic). In an analogous fashion to that in Example 6, two weeks following initiation of the high-fat diet groups of mice were initiated on treatment with vehicle control, HCQ (10 mg/kg/day) or the HCQ metabolites DHCQ (10 mg/kg/day), DCQ (10 mg/kg/day), or BDCQ (10 mg/kg/day). After 6 weeks of treatment, blood was collected for analysis of glucose, triglyceride, and cholesterol levels.

[4] = test system: high-fat diet-induced NASH in C57BL/6 mice; test: High fat diet-induced NAFLD/NASH in mice, prevention; type: in vivo, mouse; details: for liver score (NASH histology): 100 mg/kg/day from start of high-fat diet, vs vehicle (DHCQ P<0.001, HCQ P<0.05)
Procedure: To evaluate the effect of DHCQ and HCQ on an animal model of non-alcoholic fatty liver disease (NAFLD) which can lead to the development of NASH, C57BL/6 mice (8 per group) were fed a high-fat “western-style” diet (60% caloric content from fat; Taconic) for 6 weeks. The mice were asymptomatic throughout this time, but were developing a pre- or early-disease state. The mice were treated, starting at the time of initiation of the high-fat diet, with HCQ (100 mg/kg/day), DHCQ (100 mg/kg/day), or vehicle control, to prevent the development of NAFLD and NASH. After 6 weeks of treatment with DHCQ, HCQ and vehicle (control) while on a high-fat diet, blood was collected and mice sacrificed for histological analysis of liver pathology. Livers from the mice in each treatment group were fixed, embedded, sectioned, stained with H&E, representative micrographs are presented in FIG. 7A (both 10× and 20× magnification), “liver scores” determined using an established scoring system for NASH (Brunt et al, Nonalcoholic steatohepatitis: a proposal for grading and staging the histological lesions, American J. Gastroenterology, 1999, 94(9):2467-74).

[5] = test system: collagen-induced arthritis (CIA) in DBA/1 mice; test: Collagen-induced arthritis (CIA) mouse model for RA, treatment from first immunization; type: in vivo; details: 50 mg/kg/day oral gavage, 100 mg/kg/day loading day 14-21; vs vehicle, Mann Whitney U test P<0.05
[6] = test system: TNF production by human peripheral blood mononuclear cells (PBMCs); test: LPS-stimulated TNF production by human PBMCs (ELISA); type: cell-based; details: LPS 10 μg/ml, 10, 25 and 50 μM compound, 14 hours; vs LPS alone
Procedure: DHCQ reduced the production of the pro-inflammatory cytokine tumor necrosis factor (TNF) by human peripheral blood mononuclear cells (PBMCs) in response to pro-inflammatory lipopolysaccharide (LPS) stimulation (FIG. 10). Human PBMCs were isolated using Ficoll, 200,000 PBMCs were added to each well of a 96-well plate, and stimulated with LPS 10 μg/ml in the presence of a range of concentrations from 0 to 50 μM DHCQ, or 0 to 50 μM HCQ, for 14 hours, following which culture supernatants were collected and TNF measured by ELISA. Assays were run in triplicate.
Isolation of human PBMCs and monocytes. The Ficoll-Paque™ Plus (Cat; 17-1440-03GE Healthcare) was used to isolate human peripheral blood mononuclear cells (PBMCs) from blood collected from healthy donors. For cell culture, the isolated PBMCs were resuspended in culture medium (RPM11640) containing 10% FCS and antibiotics (penicillin 100 IU/mL and streptomycin 100 μg/mL). Monocyte Isolation Kit II (Cat; 130-091-153, Miltenyi Biotec) was used to isolate monocytes from the suspension of human PBMCs.
Stimulation assays. […]
Readout. […] For each assay, a parallel well treated identically was prepared and level of LDH measured to assure no evidence of cell death was induced by drug treatment.

[7] = 100 mg/kg/day, 6 weeks, vs vehicle

SMILES	EAE clinical score (severity of established EAE) [1]	Inflammatory Foci Score in the parenchyma [1]	Inflammatory Foci Score, total score [1]	Inflammatory Foci Score in the meninges [1]	therapeutic activity in established EAE compared to HCQ ([1]; mouse, in vivo)	steatosis percentage of whole area (liver histology) [2]	AST and ALT compared to treatment with HCQ ([2]; 10 mg/kg/day)	serum ALT ([2]; 10 mg/kg/day)	serum AST ([2]; 10 mg/kg/day)	treatment of diet-induced metabolic disease compared to HCQ, DCQ and BDCQ [3]	total cholesterol [3]	triglycerides [3]	blood glucose [3]	liver score (NASH histology) ([4]; 6 weeks)	serum ALT [4, 7]	serum AST [4, 7]	liver score, AST and ALT compared to HCQ ([4]; P<0.05 two-tailed T test)	arthritis score (development of disease and disease activity) [5]	TNF production [6]
CC(CCCNCCO)Nc1ccnc2cc(Cl)ccc12 (centres unmarked) [DHCQ, desethylhydroxychloroquine]	reducing the severity of EAE	statistically reduced	statistically reduced	statistically reduced	more robust therapeutic activity than treatment with HCQ	statistically reduced the steatosis percentage	statistical reductions in the AST and ALT as compared to treatment with HCQ	statistically reduced abnormal elevations	statistically reduced abnormal elevations	statistically more effectively than HCQ, DCQ and BDCQ	statistical reductions in total cholesterol	statistical reductions	statistical reduction in blood glucose levels	statistically reduced	prevents and reduces abnormal elevations	prevents and reduces abnormal elevations	statistically superior activity to HCQ	statistically reduced development of disease and reduced disease activity; also recorded: statistically lower	reduced PMBC TNF production
CCN(CCO)CCCC(C)Nc1ccnc2cc(Cl)ccc12 (centres unmarked) [HCQ, hydroxychloroquine]	reducing the severity of EAE	trends towards reductions	trends towards reductions	reduced		statistically reduced the steatosis percentage		only exhibited a trend towards reduction	only exhibited a trend towards reduction		did not result in statistical reductions	did not result in statistical reductions	did not result in statistical reductions in blood glucose	statistically reduced				statistically reduced development of disease and reduced disease activity; also recorded: statistically lower	reduced PMBC TNF production
